One experiment has as its system ileum. The experiment can be described thus: Smooth muscle effects: CaCl2 induced contractions of ileum. Details: species or system Guinea pigs. The note with it: Cavia porcellus, guinea pig ileum, DMSO effect subtracted, read-out: Percentage Inhibition of CaCl2 Induced Contractions. On the procedure: (§1) The compounds were assessed for their ability to stabilize mast cell membranes in vitro. Mast cells treated with the compounds and un-treated mast cells were stimulated to release histamine. A reduction in histamine release by the treated cells compared to the untreated cells indicates stabilisation of the membrane. The compounds were assessed for their ability to relax smooth muscle in vitro. Intestinal smooth muscle was stimulated to contract, using calcium chloride and subsequently treated with the compounds, relaxation of the contraction was measured for each compound. The effects of the compounds were also studied on relaxation of guinea-pig tracheal muscle. In the rat paw oedema test, the drugs were administered systemically prior to inducing inflammation by the injection of carageenan below the plantar aponeurosis of the hind paw. The volume of the paw was determined both before and after treatment as an index of oedema. In the mouse ear oedema test, the drugs were administered topically prior to inducing inflammation by the topical application of arachidonic acid. The width of the ear was determined both before and after treatment as an index of oedema.
Guinea pigs (350 g approx.), of either sex, were killed in an atmosphere of saturated CO2. The abdomen was opened by a mid-line incision and the small intestine was removed. The trachea was removed and sectioned between the cartilage rings, which were then split through.
Segments of ileum (1-1.5 cm) were suspended in a high potassium, no calcium Krebs buffer (NaCl 160.44 mM); KCl 45 mM; MgCl2 0.54 mM; NaH2PO4 0.89 mM; NaH2CO3 24.9 mM; Glucose 11.1 mM). Tracheal sections were suspended in normal Krebs buffer (NaCl […]; KCl 4.7 mM; CaCl2 2.5 mM; MgCl2 0.54 mM; NaH2PO4 0.89 mM; NaHCO3 24.9 mM; Glucose 11.1 mM). The solutions were maintained at 37° C. by a jacketed organ bath and gassed with 95% O2 and 5% CO2. The tissues were anchored by thread to the bottom of the organ bath and suspended from force displacement transducers under a resting tension of 1 g approx. in the case of ileum and 4 g approx. in the case of trachea. Isotonic contractions were recorded using a MacLab/4e system in conjunction with the Chart 3.3.1 software package. Surplus tissue was stored at 4° C. in Krebs buffer, for a maximum of 48 hours.
Four segments of tissue were suspended and observed concurrently. Contractions were initiated by the addition of 25 μl of 1M CaCl2 (a final concentration of 2.5 mM). The contractions stabilized with time, 10-15 min, and could be maintained for up to 45 min. from the addition of the CaCl2. The tracheal sections were allowed to develop spontaneous resting tension over a period of 30 mins.
Stock solutions of drug were prepared at 10^−3M in 50% (v/v) DMSO. These were diluted to give; 10^−4M in 5% (v/v) DMSO and 10^−5M in 0.5% (v/v) DMSO. In cases of poor solubility the 10^−3M stock was made up in higher concentrations of DMSO. Solvent ‘blank’ solutions were prepared containing 50%, 5% and 0.5% (v/v) DMSO (or as appropriate). […] A second cumulative dose-response assay was carried out using DMSO ‘blank’ solutions only.
Each drug was tested, in duplicate, on at least three different animals (n=3). The results were expressed as percentage inhibition of the CaCl2 induced contraction in the case of ideal tissue and percentage relaxation in the case of tracheal tissue, for each tissue, at each concentration of drug in DMSO. The effect of DMSO, for each tissue at each concentration, was subtracted from the effect of the drug in DMSO, to give the effect of the drug alone. A log dose vs. response curve was plotted for each drug using the mean and the standard error of the mean for the cumulated results.

The test system of another experiment is mast cells. Briefly: Histamine release assay (compound 48/80 stimulated mast cells). Type of experiment: cell-based, Wistar rats. The following applies: Rattus norvegicus, Mast cell, 2 × 10^−5 M, rat peritoneal mast cells, read-out: Percentage Inhibition of Histamine Release. The protocol: as §1
The buffered salt solution (BSS) was prepared in advance (NaCl 137 mM; KCl 2.7 mM; MgCl2 1.0 mM; CaCl2 0.5 mM, NaH2PO4 0.4 mM; Glucose 5.6 mM; HEPES 10 mM). This was dispensed into test tubes and heated to 37° C., each test tube contained 4.5 ml BSS. The solvent blank was supplemented with 0.5% (v/v) dimethyl sulphoxide (DMSO) or 0.5% (v/v) distilled water (dH2O). The two positive controls were supplemented with 0.5% (v/v) dH2O/2×10^−5M disodium cromoglycate (DSCG) and 0.5% (v/v) DMSO/2×10^−5M DSCG. The test compounds' incubation tubes contained 2×10^−5M test compound/0.5% (v/v) DMSO. The basal release, maximum release and total histamine content incubation tubes contained no additions.
Female Wistar rats (200-300 g) were killed in an atmosphere of saturated CO2. Pre-warmed BSS (10 ml) was injected i.p. and the abdomen was massaged for 3 min. The BSS, with suspended mast cells and other cells, was aspirated following a mid-line incision. The aspirate was centrifuged for 5 min at 400 g and the supernatant removed. The cells were re-suspended in BSS, at 4° C., and centrifuged as before the cells were washed in this manner a total of three times. Following the final wash, the pelleted cells were stored at 4° C., for use as soon as possible.
The cells were re-suspended in 7 ml BSS. From this, 0.5 ml aliquots were transferred to each of the incubation tubes. After 10 min at 37° C. with gentle agitation, Compound 48/80 was added to a final concentration of […], in order to stimulate histamine release. The cell stimulation was stopped after 2 min by the addition of 0.5 ml ice cold BSS, the incubation tubes were transferred to an ice bath. The cell suspensions were centrifuged for 5 min at 400 g. The “total histamine content” tube was placed at 100° C. for 2 min prior to centrifugation. The supernatants were retained for histamine assay.
To 2 ml of supernatant from each tube was added 0.4 ml of 1M NaOH and 0.1 ml oPT (1% (w/v) in methanol). This was incubated at room temperature for 4 min. The reaction was stopped by the addition of 0.2 ml of 3M HCl. The supernatant from each incubation tube was assayed in duplicate and run simultaneously with a standard curve in the range 0-1000 ng/ml. The presence of the fluorescent product of the reaction was measured using a Shimazu RF-1501 spectrofluorophotometer set at λex=360 nm, λem=450 nm.
Each drug was tested on at least five animals (n=5). The results were expressed as a percentage of maximum, compound 48/80 induced, histamine release in the solvent blank sample. Each drug was compared to DSCG on the same tissues. The basal histamine release in untreated cells was noted, expressed as a percentage of the total histamine content of the cells in suspension. […]

Another experiment concerns mouse ear oedema. Briefly: Mouse ear oedema model (arachidonic acid induced). The note with it: 300 μg per ear topically 30 min prior to 400 μg arachidonic acid; 1 hour after arachidonic acid; n=4. Type of experiment: in vivo, Laca mice. The protocol: as §1
The mouse ear oedema model was performed using Laca mice (25-35 g), of either sex. The animals were sedated with fentanyl/fluanisone (Hypnorm, Janssen). One ear was treated by the topical application of one of a range of test compounds, indomethacin or dexamethasone (all at 300 μg ear in acetone) drug. After 30 min, oedema was induced by the topical application of arachidonic acid (10 μl at […] in acetone). The thickness of each ear was measured, both before and 60 min after the induction of oedema, using a micrometer screw gauge. Ear oedema was calculated by comparing the ear width before and after induction of oedema and expressed as percentage normal.
Responses of the mouse ear to single doses of a range of compounds compared to the response to indomethacin and dexamethasone, each at a dose of 300 μg per ear administered topically 30 min prior to administration of 400 μg of arachidonic acid. Values are expressed as the percentage increase in ear thickness 1 hour after administration of arachidonic acid (all n=4, solvent controls (n=8)).

Structures are written as SMILES.

The results in this text go back to patent US6423752B1, “Indane dimer compounds with smooth muscle relaxing and/or mast cell stabilizing and/or anti-inflammatory activity” (Venantius Limited, priority 1995, dated 2002).

`CN(C1Cc2ccccc2C1)C1CC(=O)c2ccccc21` (centres unmarked) [Compound 6C6, 3-(N-methyl-N-2-indanylamino)-indan-1-one]: the inhibition at 3 µM in the experiment on ileum (3 × 10^−6 M) turned out to be 12.6%. Moreover, the inhibition at 0.3 µM with ileum (3 × 10^−7 M) was 4.64%. In the experiment on ileum (3 × 10^−8 M), the inhibition at 0.03 µM stood at 0.15%. Further, in the experiment on ileum (10^−5 M), the inhibition at 10 µM turned out to be 22.9%. The inhibition at 1 µM in the experiment on ileum (10^−6 M) was found to be 9.01%. In the experiment with ileum (10^−7 M), the inhibition at 0.1 µM was 2.75%. For the same compound, the inhibition at 20 µM in the experiment on mast cells worked out at 68%. In addition, the “percentage increase in ear thickness (Mean %)” value with mouse ear oedema is recorded as 73.0%.
